Literature values as cited in patent publication US20250049023A1, “FUNGICIDAL COMPOSITIONS” (SYNGENTA CROP PROTECTION AG, priority 2021, published 2025).

Test system: Mycosphaerella graminicola (Septoria tritici)
Settings: as disclosed in prior filings

In the case of `COc1ccnc(C(=O)N[C@@H](C)C(=O)O[C@@H](C)C(c2ccc(F)cc2)c2ccc(F)cc2)c1OC(C)=O` [Florylpicoxamid, (1S)-2,2-bis(4-fluorophenyl)-1-methylethyl N-{[3-(acetyloxy)-4-methoxy-2-pyridyl]carbonyl}-L-alaninate], the “control of wheat leaf blotch disease (in words)” value is given as “particularly effective”.
